Where two headings read alike, the source gives them in different places.
Experiment: Blood levels of penciclovir in Pekin ducks after oral dosing with penciclovir or famciclovir
Format: in vivo
Details: duck; for AUC at 6 h: 0-6 hr; for concentration at 0.25 h: 15 min; for concentration at 32 min / concentration at 0.5 h: 30 min; for concentration at 32 min: sample collected at 32 min; for concentration at 1 h / concentration at 65 min: 60 min; for concentration at 2 h: 120 min; for concentration at 4 h: 240 min; for concentration at 6 h: 360 min; for concentration at 65 min: sample collected at 65 min
[1] = 5 mg/kg, oral famciclovir 5 mg/kg, Duck No. 117
[2] = 5 mg/kg, oral famciclovir 5 mg/kg, Duck No. 154
[3] = 25 mg/kg, oral famciclovir 25 mg/kg, Duck No. 111
[4] = 25 mg/kg, oral famciclovir 25 mg/kg, Duck No. 153
[5] = 20 mg/kg, oral penciclovir 20 mg/kg, Duck No. 139
[6] = 20 mg/kg, oral penciclovir 20 mg/kg, Duck No. 169
[7] = 100 mg/kg, oral penciclovir 100 mg/kg, Duck No. 142
[8] = 100 mg/kg, oral penciclovir 100 mg/kg, Duck No. 163

SMILES: CC(=O)OCC(CCn1cnc2cnc(N)nc21)COC(C)=O [famciclovir, 9-(4-acetoxy-3-acetoxymethylbut-1-yl)-2-aminopurine]
- AUC at 6 h (5 mg/kg, oral famciclovir 5 mg/kg, Duck No. 117, read-out: AUC (area under the 0-6 hr. concentration/time curve) of penciclovir in blood): 15 µM·h
- AUC at 6 h (5 mg/kg, oral famciclovir 5 mg/kg, Duck No. 154, read-out: AUC (area under the 0-6 hr. concentration/time curve) of penciclovir in blood): 12 µM·h
- concentration at 0.25 h [1]: 8.7 µM
- concentration at 0.25 h [2]: 5.1 µM
- concentration at 32 min [1]: 8.4 µM
- concentration at 32 min [2]: 3.9 µM
- concentration at 1 h [1]: 7.5 µM
- concentration at 1 h [2]: 3.5 µM
- concentration at 2 h [1]: 2 µM
- concentration at 2 h [2]: 2 µM
- concentration at 4 h [1]: ~0.5 µM
- concentration at 4 h [2]: 1.4 µM
- concentration at 6 h [2]: 1 µM
- AUC at 6 h (25 mg/kg, oral famciclovir 25 mg/kg, Duck No. 111, read-out: AUC (area under the 0-6 hr. concentration/time curve) of penciclovir in blood): 126 µM·h
- AUC at 6 h (25 mg/kg, oral famciclovir 25 mg/kg, Duck No. 153, read-out: AUC (area under the 0-6 hr. concentration/time curve) of penciclovir in blood): 90 µM·h
- concentration at 0.25 h [3]: 22 µM
- concentration at 0.25 h [4]: 18 µM
- concentration at 0.5 h [3]: 31 µM
- concentration at 32 min [4]: 20 µM
- concentration at 1 h [3]: 34 µM
- concentration at 1 h [4]: 25 µM
- concentration at 2 h [3]: 33 µM
- concentration at 2 h [4]: 20 µM
- concentration at 4 h [3]: 14 µM
- concentration at 4 h [4]: 4.4 µM
- concentration at 6 h [3]: 6.1 µM
- concentration at 6 h [4]: ~0.5 µM

SMILES: Nc1nc2c(ncn2CCC(CO)CO)c(=O)[nH]1 [penciclovir]
- AUC at 6 h (20 mg/kg, oral penciclovir 20 mg/kg, Duck No. 139, read-out: AUC (area under the 0-6 hr. concentration/time curve) of penciclovir in blood): 55 µM·h
- AUC at 6 h (20 mg/kg, oral penciclovir 20 mg/kg, Duck No. 169, read-out: AUC (area under the 0-6 hr. concentration/time curve) of penciclovir in blood): 57 µM·h
- concentration at 0.25 h [5]: 24 µM
- concentration at 0.25 h [6]: 41 µM
- concentration at 0.5 h [5]: 28 µM
- concentration at 0.5 h [6]: 30 µM
- concentration at 65 min [5]: 18 µM
- concentration at 65 min [6]: 19 µM
- concentration at 2 h [5]: 12 µM
- concentration at 2 h [6]: 10 µM
- concentration at 4 h [5]: 2.8 µM
- concentration at 4 h [6]: 2.6 µM
- concentration at 6 h [5]: ~0.5 µM
- AUC at 6 h (100 mg/kg, oral penciclovir 100 mg/kg, Duck No. 142, read-out: AUC (area under the 0-6 hr. concentration/time curve) of penciclovir in blood): 92 µM·h
- AUC at 6 h (100 mg/kg, oral penciclovir 100 mg/kg, Duck No. 163, read-out: AUC (area under the 0-6 hr. concentration/time curve) of penciclovir in blood): 95 µM·h
- concentration at 0.25 h [7]: 43 µM
- concentration at 0.25 h [8]: 42 µM
- concentration at 0.5 h [7]: 44 µM
- concentration at 0.5 h [8]: 38 µM
- concentration at 1 h [7]: 40 µM
- concentration at 65 min [8]: 44 µM
- concentration at 2 h [7]: 18 µM
- concentration at 2 h [8]: 21 µM
- concentration at 4 h [7]: 3.6 µM
- concentration at 4 h [8]: 2.7 µM
- concentration at 6 h [7]: 1.1 µM
- concentration at 6 h [8]: ~0.5 µM

Reference: patent US6136813A, “Pharmaceutical treatment” (Beecham plc, priority 1989, dated 2000)
